Among the data in the NIST ThermoML archive (doi:10.1021/je700139p) are activity coefficient values, retold here.

± gives the expanded uncertainty stated by the source.

A short description of the series: activity coefficient (dimensionless); of the first substance listed, at infinite dilution; xn = mol fraction of the nth substance listed. Particulars: 101 kPa, Liquid, Chromatography, x1 = 0.

Regarding `CCCCCCC` [heptane] + O=S1(=O)CCCC1, the activity coefficient reads like this: (333.15 K) 60.3 ± 4.1; (343.15 K) 53.1 ± 3.6; (353.15 K) 47.6 ± 3.3; (363.15 K) 41.2 ± 2.8; (373.15 K) 38.5 ± 2.6.

Take `Cc1ccccc1C` [1,2-dimethylbenzene] + O=S1(=O)CCCC1: the activity coefficient is, setting by setting: (333.15 K) 4.57 ± 0.31; (343.15 K) 4.39 ± 0.3; (353.15 K) 4.28 ± 0.29; (363.15 K) 4.17 ± 0.28; (373.15 K) 4.04 ± 0.28.

Take `CCCCCCCCCC` [decane] + O=S1(=O)CCCC1: the activity coefficient came to 147 ± 10 (333.15 K); 126 ± 8.6 (343.15 K); 107 ± 7.3 (353.15 K); 92.2 ± 6.3 (363.15 K); 79.8 ± 5.5 (373.15 K).

On to `CCc1ccccc1` [ethylbenzene] + O=S1(=O)CCCC1, for which the activity coefficient is, setting by setting: (333.15 K) 4.82 ± 0.33; (343.15 K) 4.65 ± 0.32; (353.15 K) 4.48 ± 0.3; (363.15 K) 4.35 ± 0.3; (373.15 K) 4.26 ± 0.29.

For `Cc1ccc(C)cc1` [1,4-dimethylbenzene] + O=S1(=O)CCCC1, the activity coefficient is, setting by setting: (333.15 K) 5.51 ± 0.38; (343.15 K) 5.25 ± 0.36; (353.15 K) 5.11 ± 0.35; (363.15 K) 4.88 ± 0.33; (373.15 K) 4.76 ± 0.32.

Consider `Cc1ccccc1` [toluene] + O=S1(=O)CCCC1, for which the activity coefficient (333.15 K) is 3.46 ± 0.23; the activity coefficient (343.15 K) came to 3.38 ± 0.23; the activity coefficient (353.15 K) is 3.29 ± 0.22; the activity coefficient (363.15 K) turned out to be 3.23 ± 0.22; the activity coefficient (373.15 K) is 3.2 ± 0.22.

For the compound `Cc1cccc(C)c1` [1,3-dimethylbenzene] + O=S1(=O)CCCC1, the activity coefficient (333.15 K) amounted to 5.35 ± 0.36; the activity coefficient (343.15 K) came to 5.13 ± 0.35; the activity coefficient (353.15 K) stood at 4.98 ± 0.34; the activity coefficient (363.15 K) is 4.77 ± 0.33; the activity coefficient (373.15 K) was 4.65 ± 0.32.

On to `CCCCCCCC` [octane] + O=S1(=O)CCCC1, for which the activity coefficient (333.15 K) came out at 80.7 ± 5.5; the activity coefficient (343.15 K) is 70.5 ± 4.8; the activity coefficient (353.15 K) came out at 61.7 ± 4.2; the activity coefficient (363.15 K) was 54.3 ± 3.7; the activity coefficient (373.15 K) is 48.6 ± 3.3.

On to `c1ccccc1` [benzene] + O=S1(=O)CCCC1, for which the activity coefficient reads like this: (333.15 K) 2.32 ± 0.16; (343.15 K) 2.3 ± 0.16; (353.15 K) 2.28 ± 0.15; (363.15 K) 2.26 ± 0.15; (373.15 K) 2.25 ± 0.15.
